From US20110130432A1, “Heterocyclic Carboxamides For Use As Thrombin Inhibitors” (ASTRAZENECA AB, priority 2008, published 2011) come the findings set out here.

The target of the experiment is T1, Human α-thrombin (Homo sapiens, UniProt P00734).
T1 construct: Human α-thrombin; purchased Sigma Chemical Co. or Hematologic Technologies
Nature of the experiment: Test A: Determination of Thrombin Inhibition with a Chromogenic, Robotic Assay. It is filed as biochemical. As to conditions: chromogenic substrate S-2366 0.30 mmol/L, α-thrombin 0.020 NIHU/mL, 40 minutes incubation at 37° C. The procedure: Determination of Thrombin Inhibition with a Chromogenic, Robotic Assay
The thrombin inhibitor potency is measured with a chromogenic substrate method, in a Plato 3300 robotic microplate processor (Rosys AG, CH-8634 Hombrechtikon, Switzerland), using 96-well, half volume microtitre plates (Costar, Cambridge, Mass., USA; Cat No 3690). Stock solutions of test substance in DMSO (72 μL), 0.1-1 mmol/L, are diluted serially 1:3 (24+48 μL) with DMSO to obtain ten different concentrations, which are analyzed as samples in the assay. 2 μL of test sample is diluted with 124 μL assay buffer, 12 μL of chromogenic substrate solution (S-2366, Chromogenix, Mölndal, Sweden) in assay buffer and finally 12 μL of α-thrombin solution (Human α-thrombin, Sigma Chemical Co. or Hematologic Technologies) in assay buffer, are added, and the samples mixed. The final assay concentrations are: test substance […], S-2366 0.30 mmol/L, α-thrombin 0.020 NIHU/mL The linear absorbance increment during 40 minutes incubation at 37° C. is used for calculation of percentage inhibition for the test samples, as compared to blanks without inhibitor. The IC50 value, corresponding to the inhibitor concentration which causes 50% inhibition of the thrombin activity, is calculated from a log concentration vs. % inhibition curve.

Broadly, the IC50 is the point on the concentration scale where inhibition reaches its midpoint. With `O=C(NCc1cc(Cl)ccc1-n1cnnn1)[C@@H]1CC=NN1C(=O)C(O)c1cccc(F)c1F` (stereo partly drawn) [Example 2, (5S)—N-[5-Chloro-2-(1H-tetrazol-1-yl)benzyl]-1-[(2,3-difluorophenyl)(hydroxy)acetyl]-4,5-dihydro-1H-pyrazole-5-carboxamide], the half-inhibitory concentration (IC50) is 34 nM.
`O=C(NCc1cc(Cl)ccc1-n1cnnn1)[C@@H]1CC=NN1C(=O)C(O)c1cc(F)cc(F)c1` (stereo partly drawn) [Example 4, (5S)—N-[5-Chloro-2-(1H-tetrazol-1-yl)benzyl]-1-[(3,5-difluorophenyl)(hydroxy)acetyl]-4,5-dihydro-1H-pyrazole-5-carboxamide] had a half-inhibitory concentration (IC50) of 18 nM.
Take `O=C(NCc1cc(Cl)ccc1-n1cnnn1)[C@@H]1CC=NN1C(=O)[C@H](O)C1CCCC1` [Example 5, (5S)—N-[5-Chloro-2-(1H-tetrazol-1-yl)benzyl]-1-[(2R)-2-cyclopentyl-2-hydroxyacetyl]-4,5-dihydro-1H-pyrazole-5-carboxamide]: the IC50 worked out at 24 nM.
With `O=C(NCc1cc(Cl)ccc1-n1cnnn1)[C@@H]1CC=NN1C(=O)C(O)c1ccc(F)cc1F` (stereo partly drawn) [Example 6, (5S)—N-[5-Chloro-2-(1H-tetrazol-1-yl)benzyl]-1-[(2,4-difluorophenyl)(hydroxy)acetyl]-4,5-dihydro-1H-pyrazole-5-carboxamide], inhibition was half-maximal at 35 nM (IC50).
`O=C(NCc1cc(Cl)ccc1-n1cnnn1)[C@@H]1CC=NN1C(=O)C1(O)CCOc2ccccc21` (stereo partly drawn) [Example 12] yielded an IC50 of 130 nM.
`CC(C)(C)C[C@@H](N)C(=O)N1N=CC[C@H]1C(=O)NCc1cc(Cl)ccc1-n1cnnn1` [Example 18, (5S)—N-[5-Chloro-2-(1H-tetrazol-1-yl)benzyl]-1-(4-methyl-D-leucyl)-4,5-dihydro-1H-pyrazole-5-carboxamide] displayed an IC50 of 3.5 nM.
In the case of `O=C(NCc1cc(Cl)ccc1-n1cnnn1)[C@@H]1CC=NN1C(=O)[C@H](O)CC1CC1` [Example 19, (5S)—N-[5-Chloro-2-(1H-tetrazol-1-yl)benzyl]-1-[(2R)-3-cyclopropyl-2-hydroxypropanoyl]-4,5-dihydro-1H-pyrazole-5-carboxamide], the IC50 was 31 nM.
In the case of `CC(=O)O[C@@H](C(=O)N1N=CC[C@H]1C(=O)NCc1cc(Cl)ccc1-n1cnnn1)c1ccc(F)cc1` [Example 23, [(1R)-2-[(5S)-5-[[5-Chloro-2-(tetrazol-1-yl)phenyl]methylcarbamoyl]-4,5-dihydropyrazol-1-yl]-1-(4-fluorophenyl)-2-oxo-ethyl]acetate], it took 193 nM to reach half-maximal inhibition (IC50).
The value for `CC(C)CC(=O)O[C@@H](C(=O)N1N=CC[C@H]1C(=O)NCc1cc(Cl)ccc1-n1cnnn1)c1ccc(F)cc1` [Example 24, (1R)-2-[(5S)-5-{[5-Chloro-2-(1H-tetrazol-1-yl)benzyl]carbamoyl}-4,5-dihydro-1H-pyrazol-1-yl]-1-(4-fluorophenyl)-2-oxoethyl 3-methylbutanoate] was 140 nM; that for `CCCC(=O)O[C@@H](C(=O)N1N=CC[C@H]1C(=O)NCc1cc(Cl)ccc1-n1cnnn1)c1ccc(F)cc1` [Example 25, (1R)-2-[(5S)-5-{[5-Chloro-2-(1H-tetrazol-1-yl)benzyl]carbamoyl}-4,5-dihydro-1H-pyrazol-1-yl]-1-(4-fluorophenyl)-2-oxoethyl butanoate] was 160 nM.
Under `CC(C)C(=O)O[C@@H](C(=O)N1N=CC[C@H]1C(=O)NCc1cc(Cl)ccc1-n1cnnn1)c1ccc(F)cc1` [Example 26, (1R)-2-[(5S)-5-{[5-Chloro-2-(1H-tetrazol-1-yl)benzyl]carbamoyl}-4,5-dihydro-1H-pyrazol-1-yl]-1-(4-fluorophenyl)-2-oxoethyl 2-methylpropanoate] stands 150 nM.
`CCCCC(=O)O[C@@H](C(=O)N1N=CC[C@H]1C(=O)NCc1cc(Cl)ccc1-n1cnnn1)c1ccc(F)cc1` [Example 27, (1R)-2-[(5S)-5-{[5-Chloro-2-(1H-tetrazol-1-yl)benzyl]carbamoyl}-4,5-dihydro-1H-pyrazol-1-yl]-1-(4-fluorophenyl)-2-oxoethyl pentanoate]: half-maximal inhibition (IC50) was put at 140 nM.
